These results are taken from patent US10815200B2, “18F—tagged inhibitors of prostate specific membrane antigen (PSMA) and their use as imaging agents for prostate cancer” (DEUTSCHES KREBSFORSCHUNGSZENTRUM, priority 2015, dated 2020).

Usually IC50 stands for the concentration that inhibits the measured activity by half.

One series relates to LNCaP cells. The series can be described thus: Specific cell uptake and internalization in LNCaP cells. The class given is cell-based, human. Particulars: for Cell surface / Internalised: 30 nM radiolabeled compound, 45 min, 37° C., specific (PMPA block); for Internalized fraction: (Internalized activity/total activity)*100. The method, then: During cell culture, cells were grown at 37° C. in an incubator with humidified air, equilibrated with 5% CO2. […] To determine the specific cell uptake and internalization, 10^5 cells were seeded in poly-L-lysine coated 24-well cell culture plates 24 h before incubation. After washing, the cells were incubated with 30 nM of the radiolabeled compounds for 45 min at 37° C. […] Cellular uptake was terminated by washing 3 times with 1 mL of ice-cold PBS. […] The cells were washed with 1 mL of ice-cold PBS and lysed using 0.3 N NaOH (0.5 mL). The surface-bound and the internalized fractions were measured in a gamma counter. The cell uptake was calculated as percent of the initially added radioactivity bound to 10^5 cells [% ID/10^5 cells].

A further series relates to LNCaP tumor xenografts. The series can be described thus: MicroPET in mice bearing LNCaP tumor xenografts. The series is classed as in vivo. Particulars: 120-140 min p.i. Here is the method:
For the microPET studies, 10-25 MBq of the radiolabeled compounds in a volume of 0.10 ml (60 pmol) were injected via a lateral tail vein into mice bearing LNCaP tumor xenografts. The anesthetized animals (2% sevoflurane, Abbott, Wiesbaden, Germany) were placed in prone position into the Inveon small animal PET scanner (Siemens, Knoxville, Tenn., USA) to perform dynamic microPET scans.
(§1) For in vivo experiments, 8 week old BALB/c nu/nu mice were subcutaneously inoculated into the right trunk with 5×10^6 LNCaP- or PC3-cells in 50% Matrigel. When the size of tumor was approximately 1 cm^3, the radiolabeled compound was injected via the tail vein (ca. 30 MBq, 60 pmol for μPET imaging; ca. 1 MBq, 60 pmol for organ distribution).

Series [1] in a line: PET/CT dosimetry and kinetics in a healthy volunteer. The class given is in vivo, human. The method, then:
The healthy subject was injected a total activity of 300 MBq and subsequently PET scans were performed on a Biograph mCT Flow scanner (Siemens, Erlangen, Germany) in three blocks. Block 1 contained PET-1 (start 5 min p.i.) to PET-7 (ending 140 min p.i.), block 2 contained PET-8 (start 180 min p.i.) and PET-9 (240-270 min p.i.), block 3 contained PET-10 (440-480 min p.i.). A non-enhanced low-dose CT (estimate 1.43 mSv, respectively) for attenuation correction was performed at the beginning of each block, followed by serial emission scans without moving the volunteer in between.
Kidneys, liver, spleen, whole heart, upper and lower large intestine, parotid glands, submandibular glands and urinary bladder were segmented into volumes of interest (VOIs) using a percentage of maximum threshold between 20% and 30% using the corresponding CT as guidance and then time activity curves (TACs) were calculated for all organs. The TAC for red marrow was derived from the venous blood samples and then the dose for the red marrow calculated (S. Shen et al., JNM 2002, 43, 1245-1253; G. Sgouros et al., JNM 1993, 34, 689-694.). The TAC for the urinary bladder content was a combination of estimated activity in the urinary bladder VOI in PET and activity measured in the voided urine. Curve fitting was applied to all TACs. Kidneys, salivary glands, upper and lower large intestine and heart were fitted with a bi-exponential function. For liver, spleen and urinary bladder content a mono-exponential fit to the last three time points was performed.
Absorbed and effective dose calculations were performed using the ICRP endorsed IDAC 1.0 package which is integrated in QDOSE. Additionally, residence times of all included source organs and remainder body were exported as an OLINDA case file for dose calculation (OLINDA 1.1). The absorbed doses to the salivary glands (parotid and submandibular glands) were determined using the spherical model. The organ masses for the salivary glands were estimated with 25 g for a parotid and 12.5 g for a submandibular gland (ICRP publication 89).

The test system of the next series is prostate cancer. Put plainly: First-in-man PET study in patients suffering from prostate cancer, with histopathology correlation. The class given is in vivo, human. Here is the method:
Ten patients (age 60-80 years) suffering from a newly diagnosed high-risk prostate cancer with a gleason score of 7-9 and initial PSA levels of 5-90 ng/ml were injected 100-360 MBq [^18F]-PSMA-1007 and subsequently PET scans were performed on a Biograph mCT Flow scanner (Siemens, Erlangen, Germany) at 1 and 3 h p.i. The results are depicted in FIGS. 17 and 18 as mean values of the SUVmean and SUVmax, respectively. The pictures gained with the PET scans are exemplified in FIGS. 19 and 20 as maximum intensity projections.
Eight of the patients underwent radical prostatectomy with extended pelvic lymphadenectomy. Analyses of prostatectomy specimen were performed blinded to PET-data under the supervision of dedicated uropathologists, according to International Society of Urological Pathology standards (T. H. van der Kwast et al. Mod. Phathol. 2011, 24, 16-25). Representative sections were stained by immunohistochemistry. The sections were deparaffinized in xylene and rehydrated in a graded ethanol series. Antigen retrieval was performed with a steam cooker using retrieval buffer (Target Retrieval Solution, Dako). A mouse monoclonal antibody against PSMA (clone 3E6, Dako) was used at a 1:100 dilution and incubated overnight at 4° C. ad subsequently immunodetection was performed using the Histostain-Plus detection kit (Invitrogen). Stained sections were scanned using a Nanozoomer 2.0-HT Scansystem (Hamamatsu Photonics) to generate digital whole slide images.

The subject of series [2] is LNCaP tumor (PSMA positive). The series is classed as in vivo, mice. The method, then: as §1
(§2) The F-18 labeled compounds were injected via tail vein (1-2 MBq per mouse; 60 pmol). At 1 h after injection, the animals were sacrificed. Organs of interest were dissected, blotted dry, and weighed. The radioactivity was measured with a gamma counter (Packard Cobra II, GMI, Minnesota, USA) and calculated as % ID/g.

The subject of series [3] is PC3-tumor (PSMA negative). The series can be described thus: Organ distribution in mice carrying a PC3-tumor (PSMA negative). The series is classed as in vivo. Here is the method:
as §1, §2

The target of a further series is T1, PSMA (Homo sapiens, UniProt Q04609).
T1 construct: host or cells: LNCaP cells
The series can be described thus: Competitive cell binding assay (binding affinity) on LNCaP cells against 68Ga-labeled [Glu-urea-Lys(Ahx)]2-HBED-CC. Conditions: competition with 68Ga-labeled [Glu-urea-Lys(Ahx)]2-HBED-CC, non-radioactive reference compounds. Here is the method:
For binding studies and in vivo experiments LNCaP cells (metastatic lesion of human prostatic adenocarcinoma, ATCC CRL-1740) were cultured in RPMI medium supplemented with 10% fetal calf serum and Glutamax (PAA, Austria). During cell culture, cells were grown at 37° C. in an incubator with humidified air, equilibrated with 5% CO2. The cells were harvested using trypsin-ethylenediaminetetraacetic acid (trypsin-1.5 EDTA; 0.25% trypsin, 0.02% EDTA, all from PAA, Austria) and washed with PBS.
The competitive cell binding assay and internalization experiments were performed as described previously (Eder et al. Bioconjugate Chem. 2012, 23 (4), 688-697). Briefly, the respective cells (10^5 per well) were incubated with the radioligand (^68Ga-labeled [Glu-urea-Lys(Ahx)]2-HBED-CC (Schafer et al. EJNMMI Research 2012, 2:23 doi:10.1186/2191-219X-2-23))) in the presence of 12 different concentrations of analyte (0-5000 nM, 100 μL/well). After incubation, washing was carried out using a multiscreen vacuum manifold (Millipore, Billerica, Mass.). Cell-bound radioactivity was measured using a gamma counter (Packard Cobra II, GMI, Minnesota, USA). The 50% inhibitory concentration (IC50) was calculated by fitting the data using a nonlinear regression algorithm (GraphPad Software). Experiments were performed three times. Reference is made to Table A below.

Where only a bound is given, the exact number is not on record here.

T1 sequence (Q04609 whole entry): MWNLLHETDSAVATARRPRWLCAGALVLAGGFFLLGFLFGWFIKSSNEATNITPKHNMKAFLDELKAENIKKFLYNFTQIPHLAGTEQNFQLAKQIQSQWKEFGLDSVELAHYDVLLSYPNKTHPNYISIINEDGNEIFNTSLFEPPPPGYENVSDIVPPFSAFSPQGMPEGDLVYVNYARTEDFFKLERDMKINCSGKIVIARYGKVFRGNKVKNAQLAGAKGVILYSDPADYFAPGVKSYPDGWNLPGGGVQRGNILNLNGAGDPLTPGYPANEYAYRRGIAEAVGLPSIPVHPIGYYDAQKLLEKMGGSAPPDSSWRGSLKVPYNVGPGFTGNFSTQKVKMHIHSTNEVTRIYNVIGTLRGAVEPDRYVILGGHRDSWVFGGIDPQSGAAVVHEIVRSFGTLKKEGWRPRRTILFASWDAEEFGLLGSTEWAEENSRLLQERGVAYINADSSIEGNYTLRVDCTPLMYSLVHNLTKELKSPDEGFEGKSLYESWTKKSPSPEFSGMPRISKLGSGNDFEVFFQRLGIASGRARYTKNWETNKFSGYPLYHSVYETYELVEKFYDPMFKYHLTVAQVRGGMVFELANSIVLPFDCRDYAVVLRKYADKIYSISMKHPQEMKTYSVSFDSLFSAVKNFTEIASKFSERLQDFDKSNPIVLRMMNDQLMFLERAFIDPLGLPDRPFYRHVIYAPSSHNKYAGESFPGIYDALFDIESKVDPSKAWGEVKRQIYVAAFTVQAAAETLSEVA

On to `O=C(O)CCC(NC(=O)NC(CCCCNC(=O)C(Cc1ccc2ccccc2c1)NC(=O)c1ccc(CNC(=O)C(CCC(=O)O)NC(=O)C(CCC(=O)O)NC(=O)c2ccc([18F])nc2)cc1)C(=O)O)C(=O)O` (centres unmarked) [PSMA-1007, (Glu)-(Urea)-(Lys)-(2-Nal)-(Bn)-(Glu)-(Glu)-FN], for which, in the series with LNCaP cells, the Cell surface was 2.7 % ID/10^5 cells, the Internalised was 6.5 % ID/10^5 cells and the Internalized fraction was 71%. The “SUVmax of LNCaP tumor” value in the series with LNCaP tumor xenografts is 3.1. Moreover, the “effective dose of a PET/CT scan” value in series [1] (200-250 MBq, healthy volunteer) is given as 4.3-5.4 mSv. Moreover, in series [1] (healthy volunteer), the “blood pool activity found in the serum” value is recorded as “More than 95%” and the effective dose per injected activity turned out to be 0.0215 mSv/MBq. In addition, in series [1] (in comparison to other known PSMA-tracers), the clearance pathway result was “very unique hepatobiliary clearance with very small clearance via the renal pathway”. Moreover, the “clearance from the blood pool” value in series [1] (within the first 3 h after injection, healthy volunteer) is given as “more than 90%”. In the series with prostate cancer, the “correlation of prostatectomy histopathology with PET images” value is “nearly perfect correlation”, the “diameter of detected lymph node metastases” value is at least 1 mm and the “specificity (correlation with pelvic lymphadenectomy samples)” value was 95%. Moreover, the “tumor-to-background ratios in the primary tumor” value in the series on prostate cancer (calculated from SUVmax) is “up to 10”. The “blocking of tumor binding in the blocking experiment” value in series [2] (LNCaP tumor mice with PMPA block) was “a quantitative blocking of the binding was not observed”. Further, the tumor uptake result in series [2] (LNCaP tumor mice, 1 h after injection, non-blocked) is “about 8.0±2.4 % ID/g”. For the same molecule, in series [2] (mouse, in vivo), the “uptake in non-target tissue such as the liver and the small intestine” value is given as “significantly reduced uptake”. Moreover, the tumor uptake entry in series [3] is recorded as “practically no tumor uptake was observed”.
With `O=C(O)CCC(NC(=O)NC(CCCCNC(=O)C(Cc1ccc2ccccc2c1)NC(=O)c1ccc(CNC(=O)C(CNC(=O)c2ccc(F)nc2)S(=O)(=O)O)cc1)C(=O)O)C(=O)O` (centres unmarked) [PSMA-1026, (Glu)-(Urea)-(Lys)-(2-Nal)-(Bn)-(Sala)-FN], the IC50 on PSMA was 14 nM.
On the same count and under the same terms, with `O=C(O)CCC(NC(=O)NC(CCCCNC(=O)C(Cc1ccc2ccccc2c1)NC(=O)c1ccc(CNC(=O)C(CNC(=O)C(CNC(=O)c2ccc(F)nc2)S(=O)(=O)O)S(=O)(=O)O)cc1)C(=O)O)C(=O)O` (centres unmarked) [PSMA-1027, (Glu)-(Urea)-(Lys)-(2-Nal)-(Bn)-(Sala)-(Sala)-FN] the figure was 7 nM.
On to “(Glu)-(Urea)-(Lys)-(2-Nal)-(Bn)-(Gla)-FN [PSMA-1025]”, for which the IC50 at PSMA is 9 nM. Also, in the series with LNCaP cells, the Cell surface worked out at 4.3 % ID/10^5 cells, the Internalised was found to be 3.1 % ID/10^5 cells and the Internalized fraction worked out at 42%.
